The results in this text go back to PubChem BioAssay (NCI).

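Protocol summary: plate cells (96-well), add compound at 5 concentrations, incubate 48 h, interpolate endpoints linearly. Abbreviation: GI50, concentration required for 50% inhibition of growth. TGI is the concentration that stops growth completely.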

Assay in all cases: inhibition of tumour cell growth, NCI panel, 48 h
In assay [1] the test system is 786-0 renal.
Assay [2] relates to HT29 colon.
Assay [3] relates to KM12 colon.
For assay [4], the system named is NCI-H23 lung.
In assay [5] the test system is OVCAR-8 ovarian.
The subject of assay [6] is SW-620 colon.
The subject of assay [7] is HS 578T breast.
In assay [8] the test system is K-562 leukemia.

Take `Cc1cc(NCCCCNc2ccnc3cc(Cl)ccc23)nc(Nc2ccc(C(=O)N3CCCCC3)cc2)n1`: the GI50 in assay [1] was 1.42 µM; in assay [2], 1.78 µM; in assay [3], 1.91 µM; in assay [4], 2.27 µM; in assay [5], 2.34 µM; in assay [6] it was 1.46 µM. Moreover, the TGI in assay [1] was determined as 2.97 µM; in assay [2], 4.62 µM; in assay [3], 4.21 µM; in assay [4] it was 5.73 µM; in assay [5], 5.49 µM; in assay [6], 3.04 µM.

Turning to `Cc1noc2c1-c1ccccc1C(c1ccc(Cl)cc1)=N[C@H]2CC(N)=O`, the GI50 in assay [1] was 10.9 µM; in assay [7], 1.59 µM; in assay [2] it was 1.35 µM; in assay [8], 4.67 µM; in assay [3], 12.1 µM; in assay [4], 5.31 µM. Also, the GI50 was 15.2 µM in assay [5] and 26.1 µM in assay [6]. For the same molecule, the TGI in assay [1] was over 100 µM; in assay [7] it was over 85.6 µM; in assay [2], over 100 µM; in assay [8], over 100 µM; in assay [3], over 100 µM; in assay [4], over 100 µM. The TGI in assay [5] and in assay [6] was over 100 µM in each case.

Turning to `COc1cc(/C=C/C(=O)C(C(=O)/C=C/c2ccc(OC(=O)CCNC34CC5CC(CC(C5)C3)C4)c(OC)c2)C(=O)CCNC23CC4CC(CC(C4)C2)C3)ccc1OC(=O)CCNC12CC3CC(CC(C3)C1)C2` (centres undefined), the GI50 in assay [1] is 4.19 µM; in assay [7] it was 2.1 µM; in assay [2], 1.69 µM; in assay [8], 1.99 µM; in assay [3], 2.28 µM; in assay [4] it was 5.02 µM. Besides, the figures for the GI50 in assay [5] and in assay [6] were 1.62 µM and 2.42 µM, respectively. Besides, the TGI in assay [1] is over 100 µM; in assay [7], 6.84 µM; in assay [2] it was 3.24 µM; in assay [8], 4.97 µM; in assay [3], 5.96 µM; in assay [4], over 100 µM. The TGI in assay [5] was found to be 5.18 µM; in assay [6], 6.48 µM.

With `Cc1c2c(C(N)=O)nccc2c(C)c2c1c1ccccc1n2Cc1ccccc1`, the TGI is 15.9 µM in assay [1]; 31.5 µM in assay [7]; 37.1 µM in assay [2]; 45.7 µM in assay [8]; 72.6 µM in assay [3]; 78.8 µM in assay [4]. In addition, the TGI turned out to be 31.3 µM in assay [5] and 50 µM in assay [6].

With `O=C(CCN1CCOCC1)Nc1cccc(-n2cc(-c3ccncc3)c(-c3ccc(Cl)c(O)c3)n2)c1`, the GI50 in assay [1] was 1.9 µM; in assay [7], 3.17 µM; in assay [2], 1.9 µM; in assay [8], 1.76 µM; in assay [3], 2.46 µM; in assay [4], 3.04 µM. The GI50 is 3.71 µM in assay [5] and 1.56 µM in assay [6]. Also, the TGI turned out to be 4.75 µM in assay [1]; 25.8 µM in assay [7]; 11 µM in assay [2]; 11.4 µM in assay [8]; 11.5 µM in assay [3]; 18.6 µM in assay [4]. For the same molecule, the results for the TGI in assay [5] and in assay [6] were 57.5 µM and 12.6 µM, respectively.

With `O=C(NC1CCCCC1)c1ccc(Nc2ncnc3c2cnn3-c2ccccc2)cc1`, the GI50 in assay [1] was 3.47 µM; in assay [7], 3.37 µM; in assay [3], 57.8 µM; in assay [4], 10.9 µM; in assay [5], 3.87 µM; in assay [6], over 100 µM. Also, the TGI in assay [1] is 18.3 µM; in assay [7] it was 34.2 µM; in assay [3] it was over 100 µM; in assay [4], 89.9 µM; in assay [5], 19.3 µM; in assay [6], over 100 µM.

`c1ccc2c(c1)c1ccccc1c1ccccc21`: the GI50 in assay [1], in assay [7], in assay [2], in assay [8], in assay [3] and in assay [4] was over 100 µM throughout. For the same molecule, the GI50 in assay [5] and in assay [6] was over 100 µM throughout. Further, the TGI in assay [1], in assay [7], in assay [2], in assay [8], in assay [3] and in assay [4] was over 100 µM each time. Further, the TGI in assay [5] and in assay [6] was over 100 µM throughout.

Take `COc1cc(OC)c2sc(-c3ccc(-n4cncc4-c4cc(OC)c(OC)c(OC)c4)cc3)nc2c1`: the GI50 was 7.38 µM in assay [1]; 4.88 µM in assay [2]; 3.83 µM in assay [8]; 4.62 µM in assay [3]; 6.15 µM in assay [4]; over 100 µM in assay [5]. Further, in assay [6], the GI50 was 5.96 µM. Besides, the TGI in assay [1], in assay [2], in assay [8], in assay [3], in assay [4] and in assay [5] was over 100 µM each time. In assay [6], this molecule yielded a TGI of over 100 µM.

Turning to `Cc1sc2c(c1C)C(c1ccc(Cl)cc1)=N[C@@H](CC(=O)Nc1ccc(OCCOCCOCCOCCNc3cccc4c3C(=O)N(C3CCC(=O)NC3=O)C4=O)cc1)c1nnc(C)n1-2` (some centres undefined), the TGI in assay [1], in assay [7], in assay [2], in assay [8], in assay [3] and in assay [4] was over 100 µM throughout. Besides, the TGI in assay [5] and in assay [6] was over 100 µM throughout. The GI50 is under 0.0178 µM in assay [7]; 0.314 µM in assay [2]; 0.293 µM in assay [8]; 3.75 µM in assay [4]; under 0.0193 µM in assay [5]; 0.0787 µM in assay [6].

Regarding `COC(=O)[C@]12CC[C@@H](C)[C@H](C)[C@@H]1C1=CC[C@@H]3[C@@]4(C)C(C=O)=C[C@@](C)(COC(=O)c5ccco5)[C@@H]4[C@H](O)C[C@@]3(C)[C@]1(C)CC2`, the GI50 was 2.4 µM in assay [1]; 2.72 µM in assay [7]; 1.81 µM in assay [2]; 2.96 µM in assay [8]; 1.83 µM in assay [3]; 2.24 µM in assay [4]. The GI50 in assay [5] is 2.9 µM; in assay [6], 2.86 µM. The TGI in assay [1] is 7.13 µM; in assay [7], 8.96 µM; in assay [2], 4.14 µM; in assay [8], 9.96 µM; in assay [3] it was 4.5 µM; in assay [4] it was 7.01 µM. Moreover, the TGI in assay [5] was determined as 13.4 µM; in assay [6] it was 8.32 µM.

As for `COc1cc2c3c(n(CCCN(CCO)CCO)c(=O)c2cc1OC)-c1cc2c(cc1C3=O)OCO2`, the GI50 in assay [1] is under 0.01 µM; in assay [7], 1.66 µM; in assay [2], under 0.01 µM; in assay [8], under 0.01 µM; in assay [3], 0.365 µM; in assay [4] it was under 0.01 µM. Also, the figures for the GI50 in assay [5] and in assay [6] were 0.221 µM and under 0.01 µM, respectively. The TGI in assay [1] turned out to be 0.0646 µM; in assay [7], 13 µM; in assay [2], 1.03 µM; in assay [3] it was 1.84 µM; in assay [4] it was 0.139 µM; in assay [5], 6.01 µM. For the same molecule, the TGI in assay [6] was determined as 1.71 µM.

On to `COc1ccc(-c2cc(-c3ccc(Nc4ccnc5cc(Cl)ccc45)cc3)nc(N3CCOCC3)n2)cc1`, for which the GI50 in assay [1] was 2.26 µM; in assay [2], 3.28 µM; in assay [8], 6.18 µM; in assay [4], 4.99 µM; in assay [5] it was 4.43 µM. In addition, the TGI in assay [1] was 5.72 µM; in assay [2] it was over 100 µM; in assay [8], over 100 µM; in assay [4] it was over 100 µM; in assay [5], over 100 µM.

Consider `COc1cc(C(=O)O[C@H](C(N)=O)[C@]2(C)CO2)c2cccc(C)c2c1`, for which the GI50 in assay [1] is 2.31 µM; in assay [7] it was 0.13 µM; in assay [2], under 0.0418 µM; in assay [4], under 0.0203 µM; in assay [5], under 0.01 µM; in assay [6], under 0.01 µM. Besides, the TGI is 5.75 µM in assay [1], 15.5 µM in assay [7], 0.438 µM in assay [5] and 1.72 µM in assay [6].

As for `O=C(N/N=C/c1ccc(O)cc1O)c1cccnc1`, the GI50 in assay [1] is 4.28 µM; in assay [7], 7.26 µM; in assay [2], 7.52 µM; in assay [3] it was 3.62 µM; in assay [4], 5.92 µM; in assay [5] it was 2.5 µM. The GI50 in assay [6] was 4.34 µM. The TGI in assay [1] is over 100 µM; in assay [7] it was 82.1 µM; in assay [2], over 100 µM; in assay [3], over 100 µM; in assay [4] it was over 100 µM; in assay [5] it was 96.3 µM. The TGI in assay [6] was over 100 µM.

As for `COc1ccc(/C=C/c2cnccn2)cc1OC`, the TGI in assay [1], in assay [7], in assay [2], in assay [3], in assay [4] and in assay [5] was over 10 µM throughout. The molecule also yielded a TGI in assay [6] of over 10 µM.

With `Oc1ccc(Oc2cnc3ccccc3n2)cc1`, the GI50 is over 100 µM in assay [1]; over 100 µM in assay [2]; over 100 µM in assay [8]; 45 µM in assay [3]; over 100 µM in assay [4]; over 100 µM in assay [5]. Besides, in assay [6], the GI50 is over 100 µM. Further, the TGI in assay [1], in assay [2], in assay [8], in assay [3], in assay [4] and in assay [5] was over 100 µM each time. Also, in assay [6], the TGI was over 100 µM.

Regarding `CC(=O)[CH-]C(=O)c1ccccc1.CC(=O)[CH-]C(=O)c1ccccc1.O=S(=O)([O-])c1cc([O-])c2c([O-])cc(S(=O)(=O)[O-])cc2c1.[Na+].[Ti+4]`, the GI50 was over 100 µM in assay [1]; over 100 µM in assay [2]; over 100 µM in assay [8]; 30.2 µM in assay [3]; over 100 µM in assay [5]; over 100 µM in assay [6]. Besides, the TGI in assay [1], in assay [2], in assay [8], in assay [3], in assay [5] and in assay [6] was over 100 µM throughout.

Regarding `COc1ccc(-c2ccc(NNC(=O)c3ccc(F)cc3)nn2)cc1OC`, the GI50 in assay [1] is over 100 µM; in assay [7], 63.9 µM; in assay [2] it was over 100 µM; in assay [8], 58.7 µM; in assay [3] it was over 100 µM; in assay [4], over 100 µM. In addition, the GI50 in assay [6] was over 100 µM. Moreover, the TGI in assay [1], in assay [7], in assay [2], in assay [8], in assay [3] and in assay [4] was over 100 µM each time. The TGI in assay [6] is over 100 µM.

For `NC(=O)CNc1ccc([As]=[As]c2ccc(NCC(N)=O)cc2)cc1` (centres undefined), the GI50 in assay [1] was 3.21 µM; in assay [7], 1.45 µM; in assay [8], 3.47 µM; in assay [3], 13.7 µM; in assay [4] it was 8.1 µM; in assay [5], 4.65 µM. Moreover, the GI50 in assay [6] is 2.54 µM. For the same molecule, the TGI in assay [1] was 14.3 µM; in assay [7], 21.1 µM; in assay [8], over 100 µM; in assay [3], 33.2 µM; in assay [4] it was 31.1 µM; in assay [5], over 100 µM. Further, the TGI in assay [6] amounted to 15.4 µM.

Take `CC(C)(C)c1cc(C(=O)/C=C/c2ccc(C(=O)O)cc2)cc(C(C)(C)C)c1`: the TGI in assay [1] is 13.9 µM; in assay [7] it was 3.96 µM; in assay [2], 13.2 µM; in assay [8], over 100 µM; in assay [3], 5.75 µM; in assay [5], 7.13 µM. In assay [6], this molecule came in with a TGI of 12.1 µM.

As for `CN(C)CCNc1nc2ccccc2c2c(=O)c3cc(F)ccc3sc12`, the GI50 in assay [1] is 1.47 µM; in assay [2] it was 1.68 µM; in assay [8], 2 µM; in assay [3] it was 1.93 µM; in assay [4], 1.79 µM; in assay [6], 1.67 µM. The TGI in assay [1] worked out at 2.91 µM; in assay [2], 3.48 µM; in assay [8], 4.84 µM; in assay [3], 3.56 µM; in assay [4], 3.26 µM; in assay [6], 3.23 µM.
